Test system: NCI-H196 SCLC complex tumor spheroid viability
Test: Anticancer human tumor NCI-H196 cell line growth inhibition;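 also: spheroids exposed to compounds for 7 days before readout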;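 as to viability, T/C: 100% = DMSO vehicle control wells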
Conditions: for IC50: curve of first compound; for viability, T/C: stronger effect = lower value
Method in brief: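 Single agents and combinations were tested on spheroids built from tumor cells plus HUVEC and hMSC, at half-log dilutions starting at or near clinical Cmax, else 10 microM; final DMSO 0.25% (v/v).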

[1] = second compound 1 µM, first compound 0.0316 µM
[2] = second compound 1 µM, first compound 0.1 µM
[3] = second compound 1 µM, first compound 0.316 µM
[4] = second compound 1 µM, first compound 1 µM
[5] = second compound 1 µM, first compound 3.16 µM
[6] = second compound 1 µM, first compound 10 µM
[7] = second compound 3.16 µM, first compound 0.0316 µM
[8] = second compound 3.16 µM, first compound 0.1 µM
[9] = second compound 3.16 µM, first compound 0.316 µM
[10] = second compound 3.16 µM, first compound 1 µM
[11] = second compound 3.16 µM, first compound 3.16 µM
[12] = second compound 3.16 µM, first compound 10 µM
[13] = second compound 10 µM, first compound 0.0316 µM
[14] = second compound 10 µM, first compound 0.1 µM
[15] = second compound 10 µM, first compound 0.316 µM
[16] = second compound 10 µM, first compound 1 µM
[17] = second compound 10 µM, first compound 3.16 µM
[18] = second compound 10 µM, first compound 10 µM
[19] = second compound 31.6 µM, first compound 0.0316 µM
[20] = second compound 31.6 µM, first compound 0.1 µM
[21] = second compound 31.6 µM, first compound 0.316 µM
[22] = second compound 31.6 µM, first compound 1 µM
[23] = second compound 31.6 µM, first compound 3.16 µM
[24] = second compound 31.6 µM, first compound 10 µM
[25] = second compound 100 µM, first compound 0.0316 µM
[26] = second compound 100 µM, first compound 0.1 µM
[27] = second compound 100 µM, first compound 0.316 µM
[28] = second compound 100 µM, first compound 1 µM
[29] = second compound 100 µM, first compound 3.16 µM
[30] = second compound 100 µM, first compound 10 µM

| SMILES | IC50 (second compound 1 µM) [µM] | IC50 (second compound 3.16 µM) [µM] | IC50 (second compound 10 µM) [µM] | IC50 (second compound 31.6 µM) [µM] | IC50 (second compound 100 µM) [µM] | viability, T/C [1] [%] | viability, T/C [2] [%] | viability, T/C [3] [%] | viability, T/C [4] [%] | viability, T/C [5] [%] | viability, T/C [6] [%] | viability, T/C [7] [%] | viability, T/C [8] [%] | viability, T/C [9] [%] | viability, T/C [10] [%] | viability, T/C [11] [%] | viability, T/C [12] [%] | viability, T/C [13] [%] | viability, T/C [14] [%] | viability, T/C [15] [%] | further results |
| --- | --- | --- | --- | --- | --- | --- | --- | --- | --- | --- | --- | --- | --- | --- | --- | --- | --- | --- | --- | --- | --- |
| CC1COCCN1c1cc(-c2ccnn2C)c2ccnc(-c3ccn[nH]3)c2n1 (stereo not given) + Cn1nnc2c(C(N)=O)ncn2c1=O | 2.82 | 2.15 | 7.34 | 4.44 | 3.49 | 84.8 | 77.5 | 61.2 | 59.5 | 48.1 | 44.4 | 92.6 | 77.7 | 62.2 | 56.7 | 44.1 | 47.3 | 98.3 | 85.4 | 75.7 | viability, T/C [16]: 58.2%; viability, T/C [17]: 54%; viability, T/C [18]: 48.8%; viability, T/C [19]: 95.2%; viability, T/C [20]: 85.5%; viability, T/C [21]: 71.4%; viability, T/C [22]: 59.6%; viability, T/C [23]: 51.6%; viability, T/C [24]: 46.6%; viability, T/C [25]: 90.3%; viability, T/C [26]: 76.8%; viability, T/C [27]: 69.9%; viability, T/C [28]: 57.9%; viability, T/C [29]: 49.7%; viability, T/C [30]: 44.8% |
| COc1cc(C)[nH]c(=O)c1CN1CCc2c(Cl)cc(C(OC)C3COC3)c(Cl)c2C1=O (stereo not given) + Cn1nnc2c(C(N)=O)ncn2c1=O | > 10 | > 10 | > 10 | > 10 | > 10 | 91.4 | 103 | 89.9 | 86.8 | 94 | 92 | 95.2 | 98.8 | 99.2 | 105 | 90.9 | 97.3 | 106 | 104 | 99.7 | viability, T/C [16]: 103%; viability, T/C [17]: 98.2%; viability, T/C [18]: 102%; viability, T/C [19]: 104%; viability, T/C [20]: 107%; viability, T/C [21]: 101%; viability, T/C [22]: 106%; viability, T/C [23]: 99%; viability, T/C [24]: 105%; viability, T/C [25]: 102%; viability, T/C [26]: 98.9%; viability, T/C [27]: 99.3%; viability, T/C [28]: 87.1%; viability, T/C [29]: 96.4%; viability, T/C [30]: 94.7% |
| COc1ccc([C@@H](O)c2cc(-c3ncnc4cc(N5CCOCC5)ccc34)c(F)cc2Cl)nn1 + Cn1nnc2c(C(N)=O)ncn2c1=O | > 10 | > 10 | > 10 | > 10 | > 10 | 93.8 | 97.1 | 87.3 | 73.5 | 65.6 | 52 | 98.8 | 92.5 | 96.7 | 82.5 | 68.9 | 52.9 | 108 | 97.3 | 96.5 | viability, T/C [16]: 80.1%; viability, T/C [17]: 63.7%; viability, T/C [18]: 55.5%; viability, T/C [19]: 109%; viability, T/C [20]: 101%; viability, T/C [21]: 92.5%; viability, T/C [22]: 80.1%; viability, T/C [23]: 71.4%; viability, T/C [24]: 59.3%; viability, T/C [25]: 105%; viability, T/C [26]: 99.9%; viability, T/C [27]: 95.7%; viability, T/C [28]: 91.2%; viability, T/C [29]: 70.3%; viability, T/C [30]: 57% |

— PubChem BioAssay AID1845208 (Molecular Pharmacology Branch, DTP, NCI, 2023)
